Publication PMC6386944, “Design and Synthesis of A PD-1 Binding Peptide and Evaluation of Its Anti-Tumor Activity” (International Journal of Molecular Sciences, 2019)
Bridge positions count the residues as written; N and C are the ends. Peptide text beside a SMILES is read from it. * marks the point of attachment. FITC = O=C1OC2(c3ccc(O)cc3Oc3cc(O)ccc32)c2ccc(NC(=S)*)cc21; Ahx = NCCCCCC(=O)O

Test system: TE-13 cells co-cultured with T cells
Experiment: Lactate dehydrogenase (LDH) release assay, T cell cytotoxicity
Assay type: cell-based, human
Conditions: TE-13 and T cells at 16:1; FITC-YT-16 1, 2, 4, 8 and 16 µM; overnight, 37 °C; A490; triplicate wells
From the text: The experiment in Figure 10 mainly evaluated the activation status of CD4^+ T cells by detection of IL-2 and INF-γ levels in the culture supernatant. The test in Figure 11 mainly evaluated the enhanced cytotoxicity by CD8^+ T cells by detection of lactate dehydrogenase (LDH) release in the culture supernatant. Activated CD8 T cells can recognize tumor cells and kill tumor cells by means of degranulation and Fas/FasL recognition. After the tumor cells were damaged, a cytoplasmic enzyme with name lactate dehydrogenase (LDH) is released from damaged cells into the supernatant and by measuring the levels of LDH, we can evaluate the cytotoxic effect of CD8 T cells. […]
Effect of FITC-YT-16 peptide on T cell cytotoxicity was detected by measuring the release of a cytoplasmic enzyme, lactate dehydrogenase (LDH), from damaged cells into the supernatant by using a colorimetric assay according to cytotoxicity detection kit (Cayman Chemical, Ann Arbor, MI, USA). […] The supernatant was transferred to a new 96-well assay plate and the LDH reaction solution was added to each well and incubated for 30 min at 37 °C before the absorbance was read at 490 nm. […] Triplicate wells were averaged and the percentage of specific lysis was calculated by the following equation: % Cytotoxicity=[Experimental value A490−Spontaneous release A490/Maximum release A490−Spontaneous release A490]∗100

**Q.** Which “T cell cytotoxicity, concentration dependence” value does the source give for `CC[C@H](C)[C@@H]1NC(=O)[C@H](CCSC)NC(=O)[C@@H](NC(=O)[C@H](CCCNC(=N)N)NC(=O)[C@H](Cc2ccc(O)cc2)NC(=O)CCCCCNC(=S)Nc2ccc3c(c2)C(=O)OC32c3ccc(O)cc3Oc3cc(O)ccc32)CSSC[C@@H](C(=O)N[C@H](C(=O)N[C@H](C(=O)O)[C@@H](C)O)[C@@H](C)CC)NC(=O)[C@H](CCCCN)NC(=O)[C@H](Cc2ccc(O)cc2)NC(=O)[C@H](CC(=O)O)NC(=O)[C@H](C)NC(=O)CNC(=O)CNC(=O)[C@H](Cc2ccc(O)cc2)NC(=O)[C@H](CO)NC1=O` [FITC-YT-16] ({FITC-Ahx}-YRCMISYGGADYKCIT-OH; disulfide 3-14) here?
**A.** Its value is “dose-dependently increased”.
